Measured values reported in US20040132771A1, “Compositions of choleseteryl ester transfer protein inhibitors and HMG-CoA reductase inhibitors” (Pfizer Inc, priority 2002, published 2004).
Blank lines part the entries; values can stand above or below the molecule they belong to.

Legend:
Assay type in all cases: physicochemical
[1] = in vitro dissolution test using a syringe method (Drug 2); settings: for AUC / Drug 2 Concentration: PBS pH 6.5, 2 wt % NaTC/POPC
Description: An 8.0 mg sample of the adsorbate was added to 40 mL phosphate buffered saline (PBS) at pH 6.5 and 290 mOsm/kg, containing 2 wt % sodium taurocholic acid and 1-palmitoyl-2-oleyl-sn-glycero-3-phosphocholine (NaTC/POPC, with a 4/1 weight ratio). The concentration of drug would have been 50 μg/mL, if all of the drug had dissolved. The test solution was stirred at room temperature in a syringe equipped with a Gelman Acrodisc 13 CR 0.45 μm PTFE filter. At each sample time, about 2 mL of the test solution was pushed through the filter and analyzed using UV at a wavelength of 256 nm to determine the concentration of torcetrapib in solution. […] Crystalline torcetrapib alone is shown as a comparison.
Crystalline Drug 2 alone is shown as a comparison. In all cases, a sufficient amount of sample was added so that the concentration of drug would have been 50 μg/mL, if all of the drug had dissolved.

[2] = aqueous solubility of torcetrapib
[3] = in vitro dissolution test using a syringe method (torcetrapib); settings: for Torcetrapib Concentration / AUC: PBS pH 6.5, 2 wt % NaTC/POPC
Description: An 8.0 mg sample of the adsorbate was added to 40 mL phosphate buffered saline (PBS) at pH 6.5 and 290 mOsm/kg, containing 2 wt % sodium taurocholic acid and 1-palmitoyl-2-oleyl-sn-glycero-3-phosphocholine (NaTC/POPC, with a 4/1 weight ratio). The concentration of drug would have been 50 μg/mL, if all of the drug had dissolved. The test solution was stirred at room temperature in a syringe equipped with a Gelman Acrodisc 13 CR 0.45 μm PTFE filter. At each sample time, about 2 mL of the test solution was pushed through the filter and analyzed using UV at a wavelength of 256 nm to determine the concentration of torcetrapib in solution. Samples were collected at 1, 2, 3, 5, 10, 15, 20, 30, 45, 60, and 90 minutes. Crystalline torcetrapib alone is shown as a comparison.
The dissolution rate constant was obtained by performing a least squares fit of the experimental data using the following equation: […]
In this test, 7.855 mg of the Solid Amorphous Adsorbate 2 was added to 40 mL phosphate buffered saline (PBS) at pH 6.5 and 290 mOsm/kg, containing 2 wt % NaTC/POPC (the concentration of drug would have been 49 μg/mL, if all of the drug had dissolved).

Dissolution Rate Constant, k ([1]; Drug 2): 0.005 min⁻¹
AUC90 ([1]; Drug 2, area under the aqueous concentration versus time curve after 90 minutes): 383 µg·min/mL
AUC ([1]; Drug 2, time 0 min): 0 µg·min/mL
AUC ([1]; Drug 2, time 0.5 min): 0 µg·min/mL
AUC ([1]; Drug 2, time 5 min): 2.6 µg·min/mL
AUC ([1]; Drug 2, time 15 min): 17 µg·min/mL
AUC ([1]; Drug 2, time 45 min): 111 µg·min/mL
AUC ([1]; Drug 2, time 90 min): 383 µg·min/mL
MDC90 ([1]; maximum concentration of Drug 2 in solution during the first 90 minutes): 7.6 µg/mL
Drug 2 Concentration ([1]; time 0 min): 0 µg/mL
Drug 2 Concentration ([1]; time 0.5 min): 0.1 µg/mL
Drug 2 Concentration ([1]; time 5 min): 1.0 µg/mL
Drug 2 Concentration ([1]; time 15 min): 1.8 µg/mL
Drug 2 Concentration ([1]; time 45 min): 4.5 µg/mL
Drug 2 Concentration ([1]; time 90 min): 7.6 µg/mL
Structure (SMILES): CC[C@@H]1C[C@H](N(Cc2cc(C(F)(F)F)cc(C(F)(F)F)c2)C(=O)OC)c2cc(C(F)(F)F)ccc2N1C(=O)OC(C)C [Drug 2, [2R,4S]4-[(3,5-bis-trifluoromethyl-benzyl)-methoxycarbonyl-amino]-2-ethyl-6-trifluoromethyl-3,4-dihydro-2H-quinoline-1-carboxylic acid isopropyl ester]

solubility [2]: < 0.04 µg/mL
MDCmax,90 ([3]; maximum concentration of torcetrapib in solution during the first 90 minutes): <0.5 µg/mL
Torcetrapib Concentration ([3]; time 0 min): <0.5 µg/mL
Torcetrapib Concentration ([3]; time 1 min): <0.5 µg/mL
Torcetrapib Concentration ([3]; time 2 min): <0.5 µg/mL
Torcetrapib Concentration ([3]; time 3 min): <0.5 µg/mL
Torcetrapib Concentration ([3]; time 5 min): <0.5 µg/mL
Torcetrapib Concentration ([3]; time 10 min): <0.5 µg/mL
Torcetrapib Concentration ([3]; time 15 min): <0.5 µg/mL
Torcetrapib Concentration ([3]; time 20 min): <0.5 µg/mL
Torcetrapib Concentration ([3]; time 30 min): <0.5 µg/mL
Torcetrapib Concentration ([3]; time 45 min): <0.5 µg/mL
Torcetrapib Concentration ([3]; time 60 min): <0.5 µg/mL
Torcetrapib Concentration ([3]; time 90 min): <0.5 µg/mL
AUC90 ([3]; torcetrapib, area under the aqueous concentration versus time curve after 90 minutes): <45 min-μg/mL
Dissolution Rate Constant, k ([3]; torcetrapib, least squares fit of [D]t=[D]o(1−e^−kt)): <0.0005 min⁻¹
AUC ([3]; torcetrapib, time 0 min): 0 µg·min/mL
AUC ([3]; torcetrapib, time 1 min): 0 µg·min/mL
AUC ([3]; torcetrapib, time 2 min): <1 µg·min/mL
AUC ([3]; torcetrapib, time 3 min): <1 µg·min/mL
AUC ([3]; torcetrapib, time 5 min): <2 µg·min/mL
AUC ([3]; torcetrapib, time 10 min): <5 µg·min/mL
AUC ([3]; torcetrapib, time 15 min): <7 µg·min/mL
AUC ([3]; torcetrapib, time 20 min): <10 µg·min/mL
AUC ([3]; torcetrapib, time 30 min): <15 µg·min/mL
AUC ([3]; torcetrapib, time 45 min): <22 µg·min/mL
AUC ([3]; torcetrapib, time 60 min): <30 µg·min/mL
AUC ([3]; torcetrapib, time 90 min): <45 µg·min/mL
Structure (SMILES): CCOC(=O)N1c2ccc(C(F)(F)F)cc2[C@@H](N(Cc2cc(C(F)(F)F)cc(C(F)(F)F)c2)C(=O)OC)C[C@H]1CC [torcetrapib, [2R,4S]-4-[(3,5-bis-trifluoromethyl-benzyl)-methoxycarbonyl-amino]-2-ethyl-6-trifluoromethyl-3,4-dihydro-2H-quinoline-1-carboxylic acid ethyl ester]
